The source of these data is patent US6147073A, “Substituted tetralymethylen-Oxindoles analogues as tyrosine kinase inhibitors” (Pharmacia & Upjohn S.p.A., priority 1996, dated 2000).

Where a name gives a salt, the structure may show the parent alone.

Experiment [1] concerns the target p45 v-abl tyrosine kinase. Nature of the experiment: p45 v-abl Kinase Assay ((Val^5)-angiotensin II phosphorylation). The class given is biochemical, Abelson murine leukemia virus. As to conditions: purified abl-kinase 40 ng; peptide 2 mM, ATP 50 μM; pH 8.0, 30° C. The method, then:
The enzyme used in our tests is the p45 v-abl tyrosine kinase which represents the catalytic domain of the Abelson tyrosine kinase (isolated from the Abelson murine leukemia virus). The p45 v-abl kinase is produced and isolated as described by Wang et al. in J.Biol.Chem. 260, 64 (1985) and by Ferguson et al. in J.Biol.Chem. 260, 3652 (1985) and in Biochem.J. 257, 321 (1989).
(Val^5)-angiotensin II phosphorylation is performed by incubation with 40 ng of purified abl-kinase and (γ-^32 P) ATP, in 50 μl of buffer containing Tris-HCl 25 mM, pH 8.0, MgCl2 10 mM and dithiothreitol 0.1 mM (kinase buffer). The reaction mixture is incubated for the indicated time at 30° C. and the reaction stopped by adding 50 μl of 5% trichloracetic acid. After a brief incubation on ice the tubes are centrifuged. The supernatants are spotted on phosphocellulase paper squares (Whatman P-81) and washed extensively in acetic acid. The radioactivity bound to dried phosphocellulose squares is measured in a liquid scintillation counter. IC50 values are calculated from triplicated determination of each experimental point. Each inhibitor is tested at concentrations ranging from […] in the presence of fixed concentrations of peptide (2 mM) and ATP (50 μM).

Experiment [2] has as its system K562 cells. Nature of the experiment: K562 Cell Growth Inhibition Assay. In kind it is cell-based. As to conditions: human myelogenous leukemia cell line, cell count after 72 h vs untreated control. The method, then:
K562 cells, a human myelogenous leukemia cell line, were seeded into a 24 wells tissue culture plate (Falcon 3047) (10000/well) in the presence of increasing concentrations of the compounds.
After 72 h, cells were harvested and were counted using a cell counter (Coulter Counter-ZM). The percent of inhibition was evaluated in respect to the untreated control cells.

As usually defined, the IC50 is the point on the concentration scale where inhibition reaches its midpoint. `CC(N)C(=O)Nc1ccc2c(c1)C(=Cc1cc(O)c3c(c1O)CCCC3)C(=O)N2` (centres unmarked) [5-(alanylamino)-3-(1,4-dihydroxy-2-tetralylmethylen)-2-oxindole]: the figures for the IC50 in experiment [1] and in experiment [2] (K562) were 10 µM and 8.31 µM, respectively.
For `CC(N)C(=O)NC(C)C(=O)Nc1ccc2c(c1)C(=Cc1cc(O)c3c(c1O)CCCC3)C(=O)N2` (centres unmarked) [5-(alanylalanylamino)-3-(1,4-dihydroxy-2-tetralylmethylen)-2-oxindole trifluoroacetate], the concentration for half-maximal inhibition (IC50) in experiment [1] is 3.12 µM; in experiment [2] (K562), 5.3 µM.
For `CC(NC(=O)OC(C)(C)C)C(=O)Nc1ccc2c(c1)C(=Cc1cc(O)c3c(c1O)CCCC3)C(=O)N2` (centres unmarked) [5-(N-tert-butoxycarbonylalanylamino)-3-(1,4-dihydroxy-2-tetralylmethylen)-2-oxindole] the same measures were 1.56 µM and 5.86 µM.
With `NC(CCC(=O)O)C(=O)Nc1ccc2c(c1)C(=Cc1cc(O)c3c(c1O)CCCC3)C(=O)N2` (centres unmarked) [5-(glutamylamino)-3-(1,4-dihydroxy-2-tetralylmethylen)-2-oxindole], the 50% inhibitory concentration (IC50) turned out to be 10 µM in experiment [1] and 5.97 µM in experiment [2].
